In PubChem BioAssay AID2305 (GlaxoSmithKline (GSK), 2010):
Where “and” joins values, the source holds several entries; their conditions need not be identical. Equal entries are not always repeated.

Tested on: P. falciparum 3D7 growth, pLDH absorbance
Experiment: blood-stage malaria parasite growth potency – strain 3D7, dose response (AID 2305)

| SMILES | IC50 |
| --- | --- |
| O=c1cc(NCCCNC2CCOc3c(Cl)cccc32)[nH]c2ccccc12 (centres undefined) | 830 nM |
| COc1cc(CNCCC(C)C)ccc1OCc1cccc(COc2ccc(CNCCC(C)C)cc2OC)c1 | 490 nM |
| COc1cccc(CN2CCCC(OC(c3ccccc3)c3ccccc3)C2)c1O (centres undefined) | 930 nM |
| Cc1cccc2[nH]c(-c3cccc(-c4ccc(C(=O)NCc5ccccc5S(C)(=O)=O)cc4)c3)nc12 | 750 nM |
| COc1cc(NC(=O)/C=C/c2ccc(-c3ccccc3)cc2)ccc1OCCN(C(C)C)C(C)C | 840 nM |
| CCN(CCCN1CCCCC1)c1cc(C)nc(Nc2cc(Cl)cc(Cl)c2)n1 | 290 nM |
| COc1ccc2ncc(F)c(C(O)CN3CCC(NCc4ccc5c(n4)NC(=O)CO5)CC3)c2c1 (centres undefined) | 1110 nM and 370 nM |
| O=C(NC1CCC(CN2CCC(c3c[nH]c4ccccc34)CC2)CC1)NC12CC3CC(CC(C3)C1)C2 (centres undefined) | 1060 nM |
| Clc1ccc2c(Cl)c(CNCCCNc3nc4ccccc4[nH]3)[nH]c2c1 | 220 nM |
| COCc1ccccc1C(=O)NCCOc1cc(C)cc(C)c1 | 350 nM |
| N#Cc1cccc(NC(=O)NC2CCN(CCCCCNC(=O)[C@@H]3C[C@H]3c3ccc(Cl)c(Cl)c3)CC2)c1 | 790 nM |
| Cc1ccc(CN2CCCCC(NC(=O)c3cc4ccccc4s3)C2)cc1 (centres undefined) | 900 nM |
| CCN(CC)CCc1ccc2c(=O)cc(CCc3cccc(F)c3F)n(CC(=O)N(C)Cc3ccc(-c4ccc(C(F)(F)F)cc4)cc3)c2c1 | 860 nM |
| COc1ccc(CC2(c3ccc(F)cc3)N=C(N)N(CCCc3ccccc3)C2=O)cc1 (centres undefined) | 610 nM |
| CC(C)c1cccc(OCC2CCN(c3ccc(C(=O)Nc4ccccc4)cn3)CC2)c1 | 700 nM |
| CC(C)N1CCC(N(Cc2ccc(-c3ccc(C(F)(F)F)cc3)cc2)C(=O)Cn2c(CCc3cccc(F)c3F)cc(=O)c3ccccc32)CC1 | 850 nM |
| CS(=O)(=O)c1cccc(-c2cnc(N)c3cc(-c4ccc5c(c4)OCO5)ccc23)c1 | 1040 nM |
| CCCNC(=O)C1CCN(C(c2ccc(Cl)cc2)c2ccc(Cl)cc2)CC1 | 480 nM |
| COc1cc(OC)cc(-c2nn(-c3ccc([N+](=O)[O-])cc3C#N)c(=S)n2Cc2ccco2)c1 | 580 nM |
| Fc1ccc(Nc2ccnc3cc(I)ccc23)c(Cl)c1 | 1080 nM |
| Cc1[nH]c2ccccc2c1C1=CCN(CCCCCNC(=O)/C=C/c2ccc(Cl)c(Cl)c2)CC1 | 270 nM |
| Nc1ccc(-c2ccc3ccnc(N)c3c2)cc1 | 680 nM |
| O=C(Nc1cccc(CN2CCCN(Cc3ccc(O)cc3)CC2)c1)c1cccc(F)c1 | 900 nM |

| SMILES | IC50 |
| --- | --- |
| CCCCCCCN1CC[C@@H](CCCc2ccnc3ccc(OCCN4CCNCC4)cc23)[C@@H](CC)C1 | 770 nM |
| COc1cc2c(cc1N(C(C)C)S(=O)(=O)c1sc3ccc(Cl)cc3c1C)CCNCC2 | 1050 nM |
| O=C(NCC(CCN1CCC(c2c[nH]c3ccccc23)CC1)c1ccccc1)Nc1ccc(Cl)c(Cl)c1 (centres undefined) | 830 nM |
| CCCCCCCCCN(CCC)C(=O)[C@@H]1OC(C(=O)OC(c2ccccc2)c2ccccc2)=C[C@H](NC(=O)OC(C)(C)C)[C@H]1NC(C)=O | 640 nM |
| CCn1c(Sc2ccc([N+](=O)[O-])c(C#N)c2)nnc1-c1cccc(Cl)c1 | 870 nM |
| CCCCNC(c1ccc(Cl)cc1)C(O)c1ccc(Cl)cc1 (centres undefined) | 620 nM |
| CCCN(CC1CC1)c1ncc(-c2cccc(CNCCC3CCCN3C)c2)cn1 (centres undefined) | 750 nM |
| O=C(Nc1ccc(Cl)cc1)Nc1cccc(CCNCc2ccccc2)c1 | 730 nM |
| CCOC(=O)CN1Cc2cc(NCc3ccc4ccc5nc(C)[nH]c(=O)c5c4c3)ccc2C1=O | 700 nM |
| NC(=NCc1ccccc1)Nc1nc(-c2ccc(OCCCn3ccnc3)cc2)cs1 | 250 nM |
| Fc1cccc(CNc2ncc(-c3ccsc3)c(-c3nccs3)n2)c1 | 240 nM |
| CC(=O)N(C)C1CCN(Cc2cccc(-c3ccc(-c4nc5ccc(C(F)(F)F)cc5[nH]4)cc3)c2)C1 (centres undefined) | 560 nM |
| ON=C(c1nc2ccccc2[nH]1)c1nc2ccccc2[nH]1 | 1090 nM |
| O=C(Nc1cc(C(F)(F)F)ccc1-n1cncn1)C1(c2ccccc2)CC1 | 60 nM |
| Cc1cc(N2CCN(CC3CCN(C)CC3)CC2)nc(Nc2ccc(Cl)cc2)n1 | 700 nM |
| O=C(Nc1ccccc1)N(Cc1ccc(-c2ccc(CNC3CCCC3)cc2)cc1)C1CCN(Cc2ccccc2)CC1 | 410 nM |
| c1ccc(CNc2nc(NCCc3cnc[nH]3)nc(NCc3cccc4ccccc34)n2)cc1 | 1110 nM |
| COc1ccc(-c2cccc(NC(=O)c3ccc(Cl)cc3)c2)cc1CN(C)CCN(C)C | 780 nM |
| CN(C)CCOc1ccc2c(=O)cc(CCc3cccc(F)c3F)n(CC(=O)N(C)Cc3ccc(-c4ccc(C(F)(F)F)cc4)cc3)c2c1 | 1200 nM |
| O=C(Nc1ccccc1)N1CCOC(CCN2CCC(F)(F)CC2)(c2ccc(Cl)c(Cl)c2)C1 (centres undefined) | 190 nM |
| CCCCCCn1c(Sc2ccc(C#N)c([N+](=O)[O-])c2)nnc1-c1cccs1 | 710 nM |
| ON=C1CCc2cc(-c3nc(-c4ccc(OCCN5CCCCC5)cc4)[nH]c3-c3ccncc3)ccc21 | 800 nM |
| CCNc1cc(C(=O)N[C@@H](Cc2ccccc2)[C@H](O)CN[C@H](C)c2ccccc2)cc(N2CCCC2=O)c1 | 50 nM |

| SMILES | IC50 |
| --- | --- |
| CC(C)C[C@@H](CNC[C@H](CC(C)C)NC(=O)OC(C)(C)C)NC(=O)OC(C)(C)C | 1250 nM |
| CC(C)CC(=O)N(Cc1ccc(-c2ccc(CNC3Cc4ccccc4C3)cc2)cc1)C1CCNCC1 | 1170 nM |
| CCc1ccc(-c2nc3cc(NC(=O)c4ccc([N+](=O)[O-])o4)ccc3o2)cc1 | 250 nM |
| COC(=O)/C=C/c1ccc(C[C@@H](C)NC[C@H](O)c2cccc(C(F)(F)F)c2)cc1 | 730 nM |
| CC(C)(C)c1ccc(NC(=O)c2ccc(CN3CCCN(Cc4cccc(O)c4)CC3)cc2)cc1 | 670 nM |
| COc1ccc(CN(C)Cc2ccc(NC(=O)c3cccc4c(=O)c5cccc(C)c5[nH]c34)cc2)cc1OC | 840 nM |
| O=C(Nc1cccc(OC2CCN(Cc3ccccc3)CC2)c1)Nc1cccc([N+](=O)[O-])c1 | 780 nM |
| O=c1c2sc(-c3ccc(Cl)cc3)cc2ncn1Cc1ccc(OCCN2CCCC2)c2ccccc12 | 250 nM |
| c1ccc(CNCc2ccc(-c3cccc(-c4nc5ccccc5[nH]4)c3)cc2)cc1 | 420 nM |
| CCc1c(C)nc(-n2nc(C)cc2NC(=O)C(CC)c2ccccc2)[nH]c1=O (centres undefined) | 710 nM |
| CCCCCCN1CCC(NCc2cccc(C(F)(F)F)c2)CC1 | 250 nM |
| C[C@H](Cc1ccc(OCCCCCCOc2ccc(C[C@@H](C)NC(=O)[C@H](O)c3cccc(Cl)c3)cc2)cc1)NC[C@H](O)c1cccc(Cl)c1 | 380 nM |
| CCC(C(=O)Nc1cc(=O)[nH]c2nc(-c3ccco3)nn12)c1ccccc1 (centres undefined) | 840 nM |
| COc1ccc(C(=O)[C@H]2C[C@@H]2CN2CC=C(c3c[nH]c4ccccc34)CC2)cc1 | 530 nM |
| COc1cccc(NC(=O)COc2ccc(C(=O)Nc3nc4ccccc4[nH]3)cc2)c1 | 970 nM |
| COc1ccc2c(c1)CCCC2C(C)NCC(O)c1cccc(C(F)(F)F)c1 (centres undefined) | 350 nM |
| CC(C)NCc1cccc(-c2cccc(NC(=O)c3cccc(C#N)c3)c2)c1 | 820 nM |
| FC(F)(F)Oc1ccc(-c2cnc3ccc(NCc4ccncc4)nn23)cc1 | 870 nM |
| c1cncc(CN2CCN(Cc3ccc(-c4ccc(-c5nc6ccccc6[nH]5)s4)cc3)CC2)c1 | 940 nM |
| CN(C)CCCOc1cc(NC(=O)Nc2ccc(-c3ccncc3)c3ccccc23)ccc1I | 700 nM |
| C[C@H](CNc1ccnc(Nc2ccc3[nH]c(=O)[nH]c3c2)n1)c1ccccc1 | 1310 nM |
| COc1cc(-c2cnc(N)c(-c3nc4ccccc4[nH]3)c2)cc(OC)c1OC | 190 nM |
| CCN(CCCN1CCCCC1)c1cc(C)nc(Nc2ccc(C)c(F)c2)n1 | 270 nM |
